Data: patent US20220305019A1, “PARAXANTHINE-BASED COMPOSITIONS FOR PROMOTING WEIGHT LOSS” (Ingenious Ingredients, LP, priority 2021, published 2022)

Columns and labels:
Assay type in all cases: in vivo, human
[1] = Confidence visual analog scale (VAS) after oral ingestion, crossover, two participants; parameters: Confidence (Visual Analog Scale) / Confidence VAS MEAN: scale not given here; details: for Confidence (Visual Analog Scale) / Confidence VAS MEAN / Confidence VAS mean Δ vs. 100 mg PX / Confidence VAS mean Δ vs. PLA: 200 mg Caffeine
Experimental: (§1) All supplements were orally ingested with 8 fluid ounces of cold tap water. The order of administration for all interventions was randomized using a random allocation software to ensure randomization and to avoid order effects. After ingestion, participants completed all assessments in an identical fashion 30, 60, 90, 120, and 180 minutes after ingestion of their assigned supplement. All study visits took place between 0600-1000 hours. At least 72 hours of rest took place between each condition.

[2] = Appetite visual analog scale (VAS) after oral ingestion, crossover, two participants; details: 200 mg CA; for Appetite Visual Analog Scale MEAN: mean 30-180 min
Experimental: All supplements were orally ingested with 8 fluid ounces of cold tap water. The order of administration for all interventions was randomized using a random allocation software to ensure randomization and to avoid order effects. […] All study visits took place between 0600-1000 hours. At least 72 hours of rest will take place between each condition.

[3] = Swagger visual analog scale (VAS) after oral ingestion, crossover, two participants; details: 200 mg Caffeine
Experimental: as §1

Cn1c(=O)c2c(ncn2C)n(C)c1=O [CA, caffeine, reference compound]
Confidence (Visual Analog Scale) ([1]; 30 min, person one): 80 | Confidence (Visual Analog Scale) ([1]; 30 min, person two): 74 | Confidence (Visual Analog Scale) ([1]; 60 min, person one): 91 | Confidence (Visual Analog Scale) ([1]; 60 min, person two): 76 | Confidence (Visual Analog Scale) ([1]; 90 min, person one): 71 | Confidence (Visual Analog Scale) ([1]; 90 min, person two): 66 | Confidence (Visual Analog Scale) ([1]; 120 min, person one): 80 | Confidence (Visual Analog Scale) ([1]; 120 min, person two): 70 | Confidence (Visual Analog Scale) ([1]; 180 min, person one): 90 | Confidence (Visual Analog Scale) ([1]; 180 min, person two): 65 | Confidence VAS MEAN ([1]; Average of both): 76.3 | Confidence VAS MEAN ([1]; person one): 82.4 | Confidence VAS mean Δ vs. 100 mg PX ([1]; person one): +0.4 | Confidence VAS mean Δ vs. PLA ([1]; person one): +1 | Confidence VAS MEAN ([1]; person two): 70.2 | Confidence VAS mean Δ vs. 100 mg PX ([1]; person two): +0.2 | Confidence VAS mean Δ vs. PLA ([1]; person two): −0.8 | effect on confidence ([1]; 200 mg of CA): failed to increase confidence | reduction in appetite compared to placebo [2]: 2.4% | Appetite Visual Analog Scale ([2]; 30 min, person one): 70 | Appetite Visual Analog Scale ([2]; 30 min, person two): 50 | Appetite Visual Analog Scale ([2]; 60 min, person one): 100 | Appetite Visual Analog Scale ([2]; 60 min, person two): 60 | Appetite Visual Analog Scale ([2]; 90 min, person one): 100 | Appetite Visual Analog Scale ([2]; 90 min, person two): 61 | Appetite Visual Analog Scale ([2]; 120 min, person one): 100 | Appetite Visual Analog Scale ([2]; 120 min, person two): 65 | Appetite Visual Analog Scale ([2]; 180 min, person one): 100 | Appetite Visual Analog Scale ([2]; 180 min, person two): 70 | Appetite Visual Analog Scale MEAN ([2]; Average of both): 77.6 | Appetite Visual Analog Scale MEAN ([2]; person one): 94.0 | Appetite Visual Analog Scale MEAN ([2]; person two): 61.2 | Appetite VAS mean Δ vs. 100 mg PX ([2]; person one): +65.0 | Appetite VAS mean Δ vs. 300 mg PX ([2]; person one): +66.8 | Appetite VAS mean Δ vs. PLA ([2]; person one): −0.2 | Appetite VAS mean Δ vs. 100 mg PX ([2]; person two): −12.8 | Appetite VAS mean Δ vs. 300 mg PX ([2]; person two): −2.8 | Appetite VAS mean Δ vs. PLA ([2]; person two): −12.0 | Swagger (Visual Analog Scale) ([3]; 30 min, person one): 64 | Swagger (Visual Analog Scale) ([3]; 30 min, person two): 65 | Swagger (Visual Analog Scale) ([3]; 60 min, person one): 56 | Swagger (Visual Analog Scale) ([3]; 60 min, person two): 62 | Swagger (Visual Analog Scale) ([3]; 90 min, person one): 51 | Swagger (Visual Analog Scale) ([3]; 90 min, person two): 62 | Swagger (Visual Analog Scale) ([3]; 120 min, person one): 61 | Swagger (Visual Analog Scale) ([3]; 120 min, person two): 59 | Swagger (Visual Analog Scale) ([3]; 180 min, person one): 44 | Swagger (Visual Analog Scale) ([3]; 180 min, person two): 69 | Swagger VAS mean Δ vs. 100 mg PX ([3]; person one): −31.0 | Swagger VAS mean Δ vs. PLA ([3]; person one): −23.4 | Swagger VAS MEAN ([3]; person two): 63.4 | Swagger VAS mean Δ vs. 100 mg PX ([3]; person two): −10.0 | Swagger VAS mean Δ vs. PLA ([3]; person two): +10.0
